{"source": "paper PMC9851200", "about": "“Multiparameter phenotypic screening for endogenous TFEB and TFE3 translocation identifies novel chemical series modulating lysosome function” (Autophagy, 2022)", "assay_in_all_cases": "biochemical", "format_in_all_cases": "binding", "key": {"[1]": {"molecular_target": "cellular kinases of SH-SY5Y cells (Homo sapiens, UniProt Q16566)", "sequence (Q16566 whole entry)": "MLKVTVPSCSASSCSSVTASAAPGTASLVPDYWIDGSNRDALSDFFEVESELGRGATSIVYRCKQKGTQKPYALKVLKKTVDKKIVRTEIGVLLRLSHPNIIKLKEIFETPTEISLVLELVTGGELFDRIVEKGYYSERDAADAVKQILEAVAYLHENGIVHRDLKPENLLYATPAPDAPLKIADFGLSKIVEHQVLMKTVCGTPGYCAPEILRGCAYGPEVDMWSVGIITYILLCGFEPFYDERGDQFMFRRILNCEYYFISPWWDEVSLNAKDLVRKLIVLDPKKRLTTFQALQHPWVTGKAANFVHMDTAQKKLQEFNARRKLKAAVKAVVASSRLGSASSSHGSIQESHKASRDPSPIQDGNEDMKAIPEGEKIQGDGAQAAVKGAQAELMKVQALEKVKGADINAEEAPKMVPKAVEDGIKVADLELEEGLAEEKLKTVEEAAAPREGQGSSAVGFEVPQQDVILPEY", "details": "2µM, SH-SY5Y cells", "text": "(§1) As KINOMEscan is an in vitro assay, and as different cell types have variable kinase expression profiles we sought to determine the kinase binding profile in our SH-SY5Y TFEB-relocalization cell model. […] Bound kinases were pulled down and analyzed by mass spectrometry to determine the in situ kinase binding profile for each compound."}, "[2]": {"molecular_target": "cellular kinases of SH-SY5Y cells (Homo sapiens, UniProt Q9HCP0)", "details": "2µM; SH-SY5Y cells; Labeling Site Lys2; DVKPENFLIGR; read-out: KiNativ in-cell binding, % Inhibition, CK1g1", "text": "as §1"}, "[3]": {"molecular_target": "T1, cellular kinases of SH-SY5Y cells (Homo sapiens, UniProt Q9UL54)", "T1 construct": "endogenous in cells; host or cells: SH-SY5Y", "details": "2µM; SH-SY5Y cells; Labeling Site Lys2; DVKAGNILLSEPGLVK; read-out: KiNativ in-cell binding, % Inhibition, TAOK2/TAO2", "text": "as §1"}, "[4]": {"molecular_target": "cellular kinases of SH-SY5Y cells (Homo sapiens, UniProt Q96GD4)", "sequence (Q96GD4 whole entry)": "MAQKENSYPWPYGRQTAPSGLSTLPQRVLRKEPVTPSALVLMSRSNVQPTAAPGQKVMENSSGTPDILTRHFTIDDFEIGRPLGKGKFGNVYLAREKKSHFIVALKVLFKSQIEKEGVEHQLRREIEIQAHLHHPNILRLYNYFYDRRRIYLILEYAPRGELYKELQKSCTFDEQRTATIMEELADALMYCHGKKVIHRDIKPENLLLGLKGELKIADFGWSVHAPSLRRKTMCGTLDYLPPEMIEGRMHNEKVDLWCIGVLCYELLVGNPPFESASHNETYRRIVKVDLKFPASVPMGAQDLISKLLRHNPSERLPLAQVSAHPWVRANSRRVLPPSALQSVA", "details": "2µM; SH-SY5Y cells; Labeling Site Lys1; SHFIVALKVLFK; read-out: KiNativ in-cell binding, % Inhibition, AURKB/AurB", "text": "as §1"}, "[5]": {"molecular_target": "T2, cellular kinases of SH-SY5Y cells (Homo sapiens, UniProt Q14680)", "T2 construct": "endogenous in cells; host or cells: SH-SY5Y", "details": "2µM; SH-SY5Y cells; Labeling Site Lys2; DLKPENLLFDEYHK; read-out: KiNativ in-cell binding, % Inhibition, MELK", "text": "as §1"}, "[6]": {"molecular_target": "cellular kinases of SH-SY5Y cells (Homo sapiens, UniProt P54760)", "sequence (P54760 16-987)": "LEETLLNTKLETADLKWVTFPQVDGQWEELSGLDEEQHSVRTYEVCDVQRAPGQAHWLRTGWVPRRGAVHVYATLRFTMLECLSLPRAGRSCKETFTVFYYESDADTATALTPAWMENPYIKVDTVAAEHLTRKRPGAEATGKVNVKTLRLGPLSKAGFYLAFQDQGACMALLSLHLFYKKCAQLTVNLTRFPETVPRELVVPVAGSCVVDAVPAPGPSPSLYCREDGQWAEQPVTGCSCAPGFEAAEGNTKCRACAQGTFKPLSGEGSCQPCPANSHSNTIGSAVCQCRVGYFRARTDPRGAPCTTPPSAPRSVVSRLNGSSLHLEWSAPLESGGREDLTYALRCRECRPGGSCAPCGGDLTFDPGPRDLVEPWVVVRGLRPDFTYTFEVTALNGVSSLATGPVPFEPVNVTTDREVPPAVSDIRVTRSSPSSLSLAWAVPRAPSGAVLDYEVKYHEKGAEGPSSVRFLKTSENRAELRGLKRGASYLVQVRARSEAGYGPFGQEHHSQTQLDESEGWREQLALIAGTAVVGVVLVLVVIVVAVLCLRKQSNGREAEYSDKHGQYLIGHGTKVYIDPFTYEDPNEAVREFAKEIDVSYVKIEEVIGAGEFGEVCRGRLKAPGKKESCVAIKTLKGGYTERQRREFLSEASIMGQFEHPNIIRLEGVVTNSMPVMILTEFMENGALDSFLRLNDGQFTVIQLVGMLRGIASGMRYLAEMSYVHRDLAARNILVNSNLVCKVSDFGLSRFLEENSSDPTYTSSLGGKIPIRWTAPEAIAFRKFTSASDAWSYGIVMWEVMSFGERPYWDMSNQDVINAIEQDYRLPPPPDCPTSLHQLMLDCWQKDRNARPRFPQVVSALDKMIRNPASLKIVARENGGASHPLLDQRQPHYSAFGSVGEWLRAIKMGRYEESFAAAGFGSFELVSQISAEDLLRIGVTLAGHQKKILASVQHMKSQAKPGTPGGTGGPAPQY", "details": "2µM; SH-SY5Y cells; Labeling Site Activation Loop; FLEENSSDPTYTSSLGGKIPIR; read-out: KiNativ in-cell binding, % Inhibition, EphB4", "text": "as §1"}, "[7]": {"molecular_target": "T3, cellular kinases of SH-SY5Y cells (Homo sapiens, UniProt Q9Y572)", "T3 construct": "endogenous in cells; host or cells: SH-SY5Y", "details": "2µM; SH-SY5Y cells; Labeling Site Lys2; DLKPSNVLLDPELHVK; read-out: KiNativ in-cell binding, % Inhibition, RIPK3", "text": "as §1"}, "[8]": {"molecular_target": "T4, cellular kinases of SH-SY5Y cells (Homo sapiens, UniProt Q00537)", "T4 construct": "endogenous in cells; host or cells: SH-SY5Y", "details": "2µM; SH-SY5Y cells; Labeling Site Lys2; DLKPQNLLINEK; read-out: KiNativ in-cell binding, % Inhibition, CDK17/PCTAIRE2", "text": "as §1"}, "[9]": {"molecular_target": "cellular kinases of SH-SY5Y cells (Homo sapiens, UniProt P15056)", "sequence (P15056 whole entry)": "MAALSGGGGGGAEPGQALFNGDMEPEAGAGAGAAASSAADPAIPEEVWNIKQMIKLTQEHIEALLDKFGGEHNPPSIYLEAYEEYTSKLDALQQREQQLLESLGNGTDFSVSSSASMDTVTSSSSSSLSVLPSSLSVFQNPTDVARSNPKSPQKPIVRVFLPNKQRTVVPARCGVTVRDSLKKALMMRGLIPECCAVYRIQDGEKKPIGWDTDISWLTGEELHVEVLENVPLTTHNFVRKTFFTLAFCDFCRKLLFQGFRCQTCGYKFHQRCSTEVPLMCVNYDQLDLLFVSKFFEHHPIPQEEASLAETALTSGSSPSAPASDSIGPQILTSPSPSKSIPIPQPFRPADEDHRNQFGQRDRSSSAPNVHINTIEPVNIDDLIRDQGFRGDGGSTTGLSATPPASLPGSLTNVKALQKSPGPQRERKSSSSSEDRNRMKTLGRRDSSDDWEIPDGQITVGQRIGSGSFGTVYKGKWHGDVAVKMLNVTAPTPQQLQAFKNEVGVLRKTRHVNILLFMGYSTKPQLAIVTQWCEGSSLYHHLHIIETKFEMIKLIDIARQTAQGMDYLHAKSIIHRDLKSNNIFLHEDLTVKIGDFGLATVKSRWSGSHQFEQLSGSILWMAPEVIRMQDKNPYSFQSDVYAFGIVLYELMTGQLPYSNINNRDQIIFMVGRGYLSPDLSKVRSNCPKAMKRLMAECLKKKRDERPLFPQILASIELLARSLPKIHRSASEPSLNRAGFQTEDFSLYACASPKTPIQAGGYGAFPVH", "details": "2µM; SH-SY5Y cells; labeling site Lys2; peptide DLKSNNIFLHEDLTVK", "text": "as §1"}, "[10]": {"molecular_target": "T5, cellular kinases of SH-SY5Y cells (Homo sapiens, UniProt P52564)", "T5 sequence (P52564 1-334)": "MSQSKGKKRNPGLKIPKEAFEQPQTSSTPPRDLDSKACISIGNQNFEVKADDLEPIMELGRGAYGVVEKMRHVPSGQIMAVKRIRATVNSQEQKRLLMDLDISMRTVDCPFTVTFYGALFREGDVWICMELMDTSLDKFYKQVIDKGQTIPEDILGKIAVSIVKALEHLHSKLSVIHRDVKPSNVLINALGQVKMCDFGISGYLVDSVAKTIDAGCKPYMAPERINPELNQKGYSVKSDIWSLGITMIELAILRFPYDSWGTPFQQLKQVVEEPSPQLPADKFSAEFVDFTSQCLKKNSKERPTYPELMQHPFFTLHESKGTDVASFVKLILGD", "details": "2µM, SH-SY5Y cells; for inhibition at 2 µM: read-out: KiNativ in-cell binding, % Inhibition, MAP2K6", "text": "as §1"}, "[11]": {"molecular_target": "cellular kinases of SH-SY5Y cells (Homo sapiens, UniProt Q8IU85)", "sequence (Q8IU85 whole entry)": "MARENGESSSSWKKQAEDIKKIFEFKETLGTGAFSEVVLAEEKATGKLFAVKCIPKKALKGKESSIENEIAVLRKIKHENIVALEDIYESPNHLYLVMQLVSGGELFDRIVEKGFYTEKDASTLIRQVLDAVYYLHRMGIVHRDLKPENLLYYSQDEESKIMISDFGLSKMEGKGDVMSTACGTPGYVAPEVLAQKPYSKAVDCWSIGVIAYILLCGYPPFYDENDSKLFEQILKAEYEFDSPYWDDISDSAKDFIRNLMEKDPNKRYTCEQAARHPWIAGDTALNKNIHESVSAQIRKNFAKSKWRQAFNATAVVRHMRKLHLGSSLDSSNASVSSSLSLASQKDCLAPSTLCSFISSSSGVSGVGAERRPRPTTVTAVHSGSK", "details": "2µM, SH-SY5Y cells", "text": "as §1"}, "[12]": {"molecular_target": "T6, cellular kinases of SH-SY5Y cells (Homo sapiens, UniProt Q58A45)", "T6 construct": "endogenous in cells; host or cells: SH-SY5Y", "details": "2µM, SH-SY5Y cells, labeling site ATP", "text": "as §1"}, "[13]": {"molecular_target": "cellular kinases of SH-SY5Y cells (Homo sapiens, UniProt O00418)", "details": "2µM; SH-SY5Y cells; Labeling Site ATP; YIKYNSNSGFVR; read-out: KiNativ in-cell binding, % Inhibition, eEF2K", "text": "as §1"}, "[14]": {"molecular_target": "cellular kinases of SH-SY5Y cells (Homo sapiens, UniProt P48736)", "sequence (P48736 whole entry)": "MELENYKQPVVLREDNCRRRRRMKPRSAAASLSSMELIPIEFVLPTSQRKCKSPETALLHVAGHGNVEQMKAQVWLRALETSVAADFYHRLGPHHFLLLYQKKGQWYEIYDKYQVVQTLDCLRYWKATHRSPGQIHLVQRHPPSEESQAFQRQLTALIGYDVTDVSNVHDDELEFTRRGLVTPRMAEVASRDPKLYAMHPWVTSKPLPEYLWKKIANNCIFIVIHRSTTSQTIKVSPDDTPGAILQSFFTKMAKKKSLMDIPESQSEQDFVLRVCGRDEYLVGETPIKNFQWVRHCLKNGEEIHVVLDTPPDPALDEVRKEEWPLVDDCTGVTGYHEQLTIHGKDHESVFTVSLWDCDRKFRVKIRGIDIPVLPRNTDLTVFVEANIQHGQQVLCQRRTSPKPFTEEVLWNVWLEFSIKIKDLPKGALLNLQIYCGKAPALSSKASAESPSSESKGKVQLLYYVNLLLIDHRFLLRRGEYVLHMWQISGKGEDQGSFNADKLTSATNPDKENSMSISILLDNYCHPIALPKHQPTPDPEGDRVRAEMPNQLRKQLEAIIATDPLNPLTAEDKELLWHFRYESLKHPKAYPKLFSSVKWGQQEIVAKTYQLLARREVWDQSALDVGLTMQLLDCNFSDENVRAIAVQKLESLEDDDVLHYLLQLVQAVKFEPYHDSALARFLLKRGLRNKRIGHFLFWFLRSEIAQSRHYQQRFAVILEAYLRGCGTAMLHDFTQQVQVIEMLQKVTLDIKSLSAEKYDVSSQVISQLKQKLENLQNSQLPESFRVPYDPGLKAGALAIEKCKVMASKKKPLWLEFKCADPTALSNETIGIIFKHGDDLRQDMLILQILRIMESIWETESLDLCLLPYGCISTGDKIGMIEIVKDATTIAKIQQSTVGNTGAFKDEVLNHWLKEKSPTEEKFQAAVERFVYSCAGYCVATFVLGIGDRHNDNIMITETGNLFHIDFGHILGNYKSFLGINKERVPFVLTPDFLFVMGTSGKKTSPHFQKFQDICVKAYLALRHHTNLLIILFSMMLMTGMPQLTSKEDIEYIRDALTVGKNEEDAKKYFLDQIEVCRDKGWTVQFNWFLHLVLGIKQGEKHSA", "details": "2µM; SH-SY5Y cells; Labeling Site ATP; KKPLWLEFK; read-out: KiNativ in-cell binding, % Inhibition, PIK3CG", "text": "as §1"}, "[15]": {"tested_on": "cellular kinases of SH-SY5Y cells", "text": "as §1"}, "[16]": {"molecular_target": "cellular kinases of SH-SY5Y cells (Homo sapiens, UniProt P41743)", "sequence (P41743 whole entry)": "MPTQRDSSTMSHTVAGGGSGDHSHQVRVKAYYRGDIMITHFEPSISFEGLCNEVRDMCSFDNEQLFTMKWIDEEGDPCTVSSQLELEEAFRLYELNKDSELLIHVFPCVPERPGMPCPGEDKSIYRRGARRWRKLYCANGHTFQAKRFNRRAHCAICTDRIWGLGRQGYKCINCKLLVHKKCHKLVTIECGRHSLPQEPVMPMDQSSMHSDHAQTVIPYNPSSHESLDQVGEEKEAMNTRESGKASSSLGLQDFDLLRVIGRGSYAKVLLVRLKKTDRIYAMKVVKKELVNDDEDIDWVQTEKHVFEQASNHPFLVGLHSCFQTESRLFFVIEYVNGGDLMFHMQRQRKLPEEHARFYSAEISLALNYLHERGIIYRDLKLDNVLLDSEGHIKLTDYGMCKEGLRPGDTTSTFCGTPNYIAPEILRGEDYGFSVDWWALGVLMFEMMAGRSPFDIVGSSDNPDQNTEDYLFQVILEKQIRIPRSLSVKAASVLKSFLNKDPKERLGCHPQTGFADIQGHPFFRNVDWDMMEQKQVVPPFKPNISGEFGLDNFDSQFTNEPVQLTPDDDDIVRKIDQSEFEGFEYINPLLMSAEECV", "details": "2µM; SH-SY5Y cells; Labeling Site Lys1; IYAMKVVK; read-out: KiNativ in-cell binding, % Inhibition, PRKCI/PKCi", "text": "as §1"}}, "note": "Where two headings read alike, the source gives them in different places.", "data": [{"smiles": "Cc1cccc(-c2nc(Nc3ccc4ncsc4c3)c3ccccc3n2)n1", "note": "[NK140]", "values": [{"measurement": "KiNativ in-cell binding, CaMK4", "setting": "[1]; labeling site Lys1, peptide GTQKPYALKVLK", "result": -10.9}, {"measurement": "KiNativ in-cell binding, CaMK4", "setting": "[1]; labeling site Lys2, peptide DLKPENLLYATPAPDAPLK", "result": -28.9}, {"measurement": "inhibition at 2 µM", "setting": "[2]", "result": -28.2, "unit": "%"}, {"measurement": "inhibition at 2 µM", "setting": "[3]", "result": 23.9, "unit": "%"}, {"measurement": "inhibition at 2 µM", "setting": "[4]", "result": 27.7, "unit": "%"}, {"measurement": "inhibition at 2 µM", "setting": "[5]", "result": -40.7, "unit": "%"}, {"measurement": "inhibition at 2 µM", "setting": "[6]", "result": -33.5, "unit": "%"}, {"measurement": "inhibition at 2 µM", "setting": "[7]", "result": 26.1, "unit": "%"}, {"measurement": "inhibition at 2 µM", "setting": "[8]", "result": 13.2, "unit": "%"}, {"measurement": "KiNativ in-cell binding, BRAF, BRAF V600E", "setting": "[9]", "result": -25.8}, {"measurement": "inhibition at 2 µM", "setting": "[10]; Labeling Site Activation Loop, MCDFGISGYLVDSVAKTIDAGCKPYMAPER", "result": -15.9, "unit": "%"}, {"measurement": "inhibition at 2 µM", "setting": "[10]; Labeling Site Lys1, HVPSGQIMAVKR", "result": 15.4, "unit": "%"}, {"measurement": "KiNativ in-cell binding, MAP2K6", "setting": "[10]; labeling site Lys2, peptide DVKPSNVLINALGQVK", "result": 17.8}, {"measurement": "inhibition at 2 µM", "setting": "[11]; Labeling Site Lys1, LFAVKCIPK, read-out: KiNativ in-cell binding, % Inhibition, CaMK1d", "result": -23, "unit": "%"}, {"measurement": "KiNativ in-cell binding, CaMK1d", "setting": "[11]; labeling site Lys2, peptide DLKPENLLYYSQDEESK", "result": -24.1}, {"measurement": "KiNativ in-cell binding, PAN3", "setting": "[12]; peptide IQKSSNFGYITSCYK", "result": -119.6}, {"measurement": "KiNativ in-cell binding, PAN3", "setting": "[12]; peptide VMDPTKILITGK", "result": -99.0}, {"measurement": "inhibition at 2 µM", "setting": "[13]", "result": 26, "unit": "%"}, {"measurement": "inhibition at 2 µM", "setting": "[14]", "result": 27.6, "unit": "%"}, {"measurement": "KiNativ in-cell binding, % Inhibition, CaMK2a, CaMK2b, CaMK2d, CaMK2g", "setting": "[15]", "result": 16.4, "unit": "%"}, {"measurement": "KiNativ in-cell binding, AKT1, AKT3", "setting": "[15]", "result": -0.000814}, {"measurement": "KiNativ in-cell binding, % Inhibition, AKT1, AKT3", "setting": "[15]; 2 µM", "result": 34.2, "unit": "%"}, {"measurement": "KiNativ in-cell binding, % Inhibition, STK17A/DRAK1, STK17B/DRAK2", "setting": "[15]; 2µM, SH-SY5Y cells, Labeling Site ATP Loop, GKFAVVR", "result": -4.6, "unit": "%"}, {"measurement": "KiNativ in-cell binding, % Inhibition, AURKA/AurA, AURKB/AurB, AURKC/AurC", "setting": "[15]; 2µM, SH-SY5Y cells, Labeling Site ATP Loop, GKFGNVYLAR", "result": 24.2, "unit": "%"}, {"measurement": "KiNativ in-cell binding, % Inhibition, CSNK1G1, CSNK1G2, CSNK1G3", "setting": "[15]; 2µM, SH-SY5Y cells, Labeling Site ATP Loop, KIGCGNFGELR", "result": 8.1, "unit": "%"}, {"measurement": "KiNativ in-cell binding, % Inhibition, Wnk1, Wnk2, Wnk4", "setting": "[15]; 2µM, SH-SY5Y cells, Labeling Site Activation Loop, IGDLGLATLKR", "result": 6.9, "unit": "%"}, {"measurement": "KiNativ in-cell binding, % Inhibition, MERTK/MER, TYRO3", "setting": "[15]; 2µM, SH-SY5Y cells, Labeling Site Activation Loop, KIYSGDYYR", "result": -4.5, "unit": "%"}, {"measurement": "KiNativ in-cell binding, % Inhibition, KSR1, KSR2", "setting": "[15]; 2µM, SH-SY5Y cells, Labeling Site Activation Loop, SKNVFYDNGK", "result": 5.1, "unit": "%"}, {"measurement": "KiNativ in-cell binding, % Inhibition, MARK3, MARK4", "setting": "[15]; 2µM, SH-SY5Y cells, Labeling Site Lys1, EVAIKIIDK", "result": 2.7, "unit": "%"}, {"measurement": "KiNativ in-cell binding, % Inhibition, MARK1, MARK2", "setting": "[15]; 2µM, SH-SY5Y cells, Labeling Site Lys1, EVAVKIIDK", "result": 1.8, "unit": "%"}, {"measurement": "KiNativ in-cell binding, % Inhibition, TAOK1, TAOK3", "setting": "[15]; 2µM, SH-SY5Y cells, Labeling Site Lys2, DIKAGNILLTEPGQVK", "result": 26.0, "unit": "%"}, {"measurement": "KiNativ in-cell binding, % Inhibition, MAP3K2, MAP3K3", "setting": "[15]; 2µM, SH-SY5Y cells, Labeling Site Lys2, DIKGANILR", "result": 28.5, "unit": "%"}, {"measurement": "KiNativ in-cell binding, % Inhibition, NEK6, NEK7", "setting": "[15]; 2µM, SH-SY5Y cells, Labeling Site Lys2, DIKPANVFITATGVVK", "result": -7.5, "unit": "%"}, {"measurement": "KiNativ in-cell binding, % Inhibition, MARK2, MARK3", "setting": "[15]; 2µM, SH-SY5Y cells, Labeling Site Lys2, DLKAENLLLDADMNIK", "result": -28.6, "unit": "%"}, {"measurement": "KiNativ in-cell binding, % Inhibition, Wnk1, Wnk2, Wnk3", "setting": "[15]; 2µM, SH-SY5Y cells, Labeling Site Lys2, DLKCDNIFITGPTGSVK", "result": 6.4, "unit": "%"}, {"measurement": "KiNativ in-cell binding, % Inhibition, PRKCA/PKCa, PRKCB/PKCb", "setting": "[15]; 2µM, SH-SY5Y cells, Labeling Site Lys2, DLKLDNVMLDSEGHIK", "result": -2.4, "unit": "%"}, {"measurement": "KiNativ in-cell binding, % Inhibition, CSNK1D, CSNK1E", "setting": "[15]; 2µM, SH-SY5Y cells, Labeling Site Lys2, DVKPDNFLMGLGKK", "result": 19.5, "unit": "%"}, {"measurement": "KiNativ in-cell binding, % Inhibition, ROCK1, ROCK2", "setting": "[15]; 2µM, SH-SY5Y cells, Labeling Site Lys2, DVKPDNMLLDK", "result": -44.8, "unit": "%"}, {"measurement": "KiNativ in-cell binding, % Inhibition, MAPKAPK2, MAPKAPK3", "setting": "[15]; 2µM, SH-SY5Y cells, Labeling Site Lys2, DVKPENLLYTSK", "result": 16.8, "unit": "%"}, {"measurement": "KiNativ in-cell binding, % Inhibition, PRKCA/PKCa, PRKCG/PKCg", "setting": "[15]; 2µM, SH-SY5Y cells, Labeling Site Other, NLIPMDPNGLSDPYVKLK", "result": -18.8, "unit": "%"}, {"measurement": "KiNativ in-cell binding, % Inhibition, PI4KA, PI4KAP2", "setting": "[15]; 2µM, SH-SY5Y cells, Labeling Site Unassigned, SGTPMQSAAKAPYLAK", "result": 1.2, "unit": "%"}, {"measurement": "KiNativ in-cell binding, IKKe, TBK1", "setting": "[15]; 2µM, SH-SY5Y cells, labeling site Lys2, peptide DIKPGNIMR", "result": -85.5}, {"measurement": "KiNativ in-cell binding, MYO3A, MYO3B", "setting": "[15]; 2µM, SH-SY5Y cells, labeling site Lys2, peptide DVKGNNILLTTEGGVK", "result": 0.9}, {"measurement": "KiNativ in-cell binding, MAP2K1, MAP2K2", "setting": "[15]; 2µM, SH-SY5Y cells, labeling site Lys2, peptide DVKPSNILVNSR", "result": -3.2}, {"measurement": "inhibition at 2 µM", "setting": "[16]", "result": -1.3, "unit": "%"}]}]}
